Measured values published in patent US11013745B2, “Triazolopyrimidine, triazolopyridine compounds, and the composition thereof for treating PRC2-mediated diseases” (SHANGHAI INSTITUTE OF MATERIA MEDICA, CHINESE ACADEMY OF …, priority 2017, dated 2021).
Read-outs that look alike come from different tables or passages of the source. Values belong to the compound of their own block, whether it stands above or below them.

Legend:
[1] = Liver microsomal stability (human); assay type: in vitro ADME
Procedure, shortened: (§1)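 Human, mouse and rat liver microsomes were incubated with NADPH and MgCl2 in 0.1 M Tris pH 7.4, with compound at a 0.2 μM working solution. Remaining compound was quantified by LC/MS over the incubation time. The slope of log remaining versus time gave Clint, which was scaled to predicted Cl, Clhep and % MF.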

[2] = Oral pharmacokinetics in rats; assay type: in vivo; conditions: male, SD, plasma, rat, intragastric, 3 mg/kg; for AUC(0-inf): extrapolated to infinity, read-out: AUCINF_obs; for MRT inf: read-out: Average residence time MRTINF_obs; for half-life: read-out: Half life T1/2 (converted); for Cmax: read-out: Peak concentration Cmax
Experimental: 1. Healthy male SD rats were used as test animals, EED226, […]-07 (3 mg/kg) were administered intragastrically, and the drug concentrations in rat plasma were determined by LC/MS/MS method at different time points after drug administration. The pharmacokinetic behavior of the compounds of the present invention in rats was studied, and the pharmacokinetic properties were evaluated. 2. The test animals were healthy adult male SD rats, with 3 rats in each group, purchased from Shanghai Xipuer-Bikai Laboratory Animal Limited Company. 3. Drug preparation: Compounds EED226, […] were dissolved in DMSO/0.5% HPMC (5/95, v/v) for preparation. The compound SL-ZYE-07 was dissolved in 0.5% HPMC (containing 0.5% Tween 80), vortexed, and sonicated to disperse the solid matter uniformly to obtain a pale white suspension. 4, Operation: EED226, […]-07 were administered to rats by intragastric administration (3 mg/kg), 45 μL of blood was taken through the femoral vein at 0.25, 0.5, 1, 2, 4, 8, 24 hour after administration, and centrifuged in a heparinized centrifuge tube for 5 min, and the plasma samples were separated for analysis. The contents of test compounds in rat plasma after intragastric administration of different compounds were determined by Liquid chromatography-mass spectrometry (LC-MS/MS).

SU-DHL-4 cells = test: Growth inhibition of SU-DHL-4 cells in a long term (11 days), CellTiter-Glo; assay type: cell-based, Human; conditions: Homo sapiens, read-out: SU-DHL-4 (11 days) IC50
Pfeiffer cells [3] = test: Growth inhibition of Pfeiffer cells in a long term (14 days), CellTiter-Glo; assay type: cell-based, Human; conditions: Homo sapiens, 336 h, read-out: Pfeiffer (14 days) IC50
Experimental: In a CO2 cell incubator (37° C., 5% CO2), Human diffuse large B-cell lymphoma (DLBCL) cell line, pfeiffer (obtained from ATCC, CRL-2632) were incubated with RPMI 1640 medium (Gibco, purchased from Life Technologies, 22400-089) containing 10% fetal bovine serum (Gibco, purchased from Life Technologies, 10099-141) and 1% antibiotics (penicillin and streptomycin, purchased from Life Technologies, 10378016). […] After seeding the cells, they were placed in a CO2 incubator and allowed to stand for 1 hour. In a 24-well plate containing cells, 2 μL of three-fold gradient of the compounds at 9 different concentrations or DMSO were added to each well, such that the final concentration of the compounds was 0.003-20 μM or 0.3-2000 nM, and the final concentration of DMSO was 0.2%. At day 4, day 7, and day 11 of compound treatment, the fresh medium and compounds were changed, and the cell density of the DMSO control well was diluted to 2*10E5 cells/mL. The cell dilution ratio for other compound wells was the same as that of the DMSO control well. Cell viability was determined by using CellTiter-Glo reagent (purchased from Promega Inc., G7572): cells treated with the compounds for 14 days were transferred to a white 384-well plate (OptiPlate-384, purchased from PerkinElmer, 6007299) at 40 μL/well, an equal volume of CellTiter-Glo reagent was further added. After incubating at room temperature for 10 min, the cold luminescence signal was detected with a multifunctional microplate reader EnVision (PerkinElmer) at a wavelength of 400 to 700 nm. Data were analyzed using GraphPad Prism 5.0 software, and IC50 values were obtained.

Karpas-422 cells = test: Growth inhibition of Karpas-422 cells in a long term (11 days), CellTiter-Glo; assay type: cell-based, Human; conditions: Homo sapiens, read-out: Karpas-422 (11 days) IC50
[4] = Liver microsomal stability (rat); assay type: in vitro ADME
Procedure, shortened: as §1

[5] = Liver microsomal stability (mouse); assay type: in vitro ADME
Pfeiffer cells [6] = test: Pfeiffer cell growth inhibition in a long term (11 days), CellTiter-Glo; assay type: cell-based, Human; conditions: Homo sapiens, 264 h, read-out: Experiment on Pfeiffer cell growth inhibition in a long term (11 days IC50)
Procedure, shortened: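 Exponentially growing cells seeded at 1*10E5 cells/mL and treated the same day with a concentration range. Media and compound were refreshed at days 4 and 7. Viability was read by CellTiter-Glo after 11 days and GI50 values were derived.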

PRC2 enzyme = PRC2 enzyme (Homo sapiens (Human), UniProt O75530); test: PRC2 enzyme activity, TR-FRET method; assay type: biochemical
Chain of PRC2 enzyme (O75530 whole entry): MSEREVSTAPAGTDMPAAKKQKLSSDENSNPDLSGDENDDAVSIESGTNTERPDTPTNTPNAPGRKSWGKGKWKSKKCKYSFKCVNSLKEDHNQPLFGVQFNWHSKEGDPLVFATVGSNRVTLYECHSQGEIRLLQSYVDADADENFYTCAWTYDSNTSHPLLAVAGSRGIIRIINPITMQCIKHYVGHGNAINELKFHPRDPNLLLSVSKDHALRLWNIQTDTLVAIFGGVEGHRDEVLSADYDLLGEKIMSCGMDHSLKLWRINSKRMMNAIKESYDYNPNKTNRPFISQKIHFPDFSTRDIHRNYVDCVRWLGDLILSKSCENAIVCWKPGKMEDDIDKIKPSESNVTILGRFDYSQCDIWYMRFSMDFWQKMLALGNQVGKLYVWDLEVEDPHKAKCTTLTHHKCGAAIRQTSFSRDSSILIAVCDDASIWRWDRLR
Chain of PRC2 enzyme (Q15910 whole entry partner): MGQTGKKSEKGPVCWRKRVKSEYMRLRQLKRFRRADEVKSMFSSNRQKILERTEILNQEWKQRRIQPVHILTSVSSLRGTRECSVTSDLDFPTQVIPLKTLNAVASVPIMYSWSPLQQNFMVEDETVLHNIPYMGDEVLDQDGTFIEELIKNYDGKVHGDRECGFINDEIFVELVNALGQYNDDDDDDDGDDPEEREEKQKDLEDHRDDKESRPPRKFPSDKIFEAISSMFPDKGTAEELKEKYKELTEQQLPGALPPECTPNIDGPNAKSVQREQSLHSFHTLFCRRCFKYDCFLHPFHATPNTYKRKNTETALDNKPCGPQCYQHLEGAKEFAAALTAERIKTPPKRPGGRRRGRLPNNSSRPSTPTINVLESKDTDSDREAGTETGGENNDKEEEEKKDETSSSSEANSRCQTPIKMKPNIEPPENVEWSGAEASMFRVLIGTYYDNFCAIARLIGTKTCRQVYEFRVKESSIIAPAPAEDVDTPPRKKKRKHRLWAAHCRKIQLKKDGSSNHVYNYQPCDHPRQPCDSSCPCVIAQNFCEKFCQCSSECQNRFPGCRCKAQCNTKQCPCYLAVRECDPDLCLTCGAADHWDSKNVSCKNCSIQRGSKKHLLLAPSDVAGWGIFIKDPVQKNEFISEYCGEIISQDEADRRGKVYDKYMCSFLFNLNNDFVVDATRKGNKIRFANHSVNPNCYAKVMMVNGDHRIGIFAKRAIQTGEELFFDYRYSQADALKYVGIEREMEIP
Chain of PRC2 enzyme (Q15022 whole entry partner): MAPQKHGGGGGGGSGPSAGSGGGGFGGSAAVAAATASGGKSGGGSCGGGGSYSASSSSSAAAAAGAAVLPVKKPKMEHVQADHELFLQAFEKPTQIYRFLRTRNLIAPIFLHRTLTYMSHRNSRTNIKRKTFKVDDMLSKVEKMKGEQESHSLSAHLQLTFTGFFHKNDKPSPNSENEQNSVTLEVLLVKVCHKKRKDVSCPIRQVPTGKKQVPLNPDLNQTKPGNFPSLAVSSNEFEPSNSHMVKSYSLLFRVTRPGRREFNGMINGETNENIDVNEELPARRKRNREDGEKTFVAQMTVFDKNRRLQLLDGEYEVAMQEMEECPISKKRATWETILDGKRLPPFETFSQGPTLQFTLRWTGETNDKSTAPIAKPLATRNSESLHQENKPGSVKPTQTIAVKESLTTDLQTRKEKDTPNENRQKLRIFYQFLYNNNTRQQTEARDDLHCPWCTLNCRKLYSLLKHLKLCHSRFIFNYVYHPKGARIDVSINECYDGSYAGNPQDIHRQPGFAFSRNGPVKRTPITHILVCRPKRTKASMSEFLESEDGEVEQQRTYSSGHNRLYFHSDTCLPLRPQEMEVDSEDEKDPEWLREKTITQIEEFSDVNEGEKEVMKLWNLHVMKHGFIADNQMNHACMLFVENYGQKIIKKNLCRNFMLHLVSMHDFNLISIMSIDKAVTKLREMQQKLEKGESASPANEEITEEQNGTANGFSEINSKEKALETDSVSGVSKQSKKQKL
Procedure, shortened: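 Enzyme preincubated with compound 30 min at room temperature; reaction started with biotin-labeled histone H3 peptide and SAM, run 4 h at room temperature.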

Clearance rate in vivo Clint In Vivo Extpl ([1]; human liver microsomes): 1613 mL/min | Intrinsic clearance rate in vivo Clint In Vitro ([1]; human liver microsomes): 21.1 mL/min/gprot | Liver clearance rate Clint Hep In Vivo Extpl ([1]; human liver microsomes): 777 mL/min | half-life ([1]; human, liver microsomes, pH 7.4, human liver microsomes, read-out: Half life T-half): 1.66 h | bioavailability ([1]; human, liver microsomes, pH 7.4, human liver microsomes, read-out: Metabolic bioavailability MF %): 48.2% | AUC(0-t) [2]: 2200 ± 237 ng·h/mL | AUC(0-inf) [2]: 2200 ± 239 ng·h/mL | MRT inf [2]: 5.46 ± 0.342 h | half-life [2]: 2.32 ± 0.268 h | Cmax [2]: 302 ± 6.4 ng/mL | IC50 (SU-DHL-4 cells; 264 h, SU-DHL-4, 11 days): 4 nM | IC50 (Pfeiffer cells [3]; 14 days): 4 nM | IC50 (Karpas-422 cells; 264 h, Karpas-422, 11 days): 19 nM | Clearance rate in vivo Clint In Vivo Extpl ([4]; rat liver microsomes): 15.9 mL/min | Intrinsic clearance rate in vivo Clint In Vitro ([4]; rat liver microsomes): 35.2 mL/min/gprot | Liver clearance rate Clint Hep In Vivo Extpl ([4]; rat liver microsomes): 8.85 mL/min | Metabolic bioavailability MF % ([4]; rat liver microsomes): 55.8% | half-life ([4]; rat, liver microsomes, pH 7.4, rat liver microsomes, read-out: Half life T-half): 0.993 h | Clearance rate in vivo Clint In Vivo Extpl ([5]; mouse liver microsomes): 1.98 mL/min | Intrinsic clearance rate in vivo Clint In Vitro ([5]; mouse liver microsomes): 29.4 mL/min/gprot | Liver clearance rate Clint Hep In Vivo Extpl ([5]; mouse liver microsomes): 1.19 mL/min | Metabolic bioavailability MF % ([5]; mouse liver microsomes): 60.2% | half-life ([5]; mouse, liver microsomes, pH 7.4, mouse liver microsomes, read-out: Half life T-half): 1.19 h | IC50 (Pfeiffer cells [6]; 11 days): 8 nM
Structure (SMILES): Fc1ccc2c(c1CNc1ncc(C3=CCOCC3)c3nncn13)CCO2 [E-Y1]

Structure (SMILES): CS(=O)(=O)c1ccc(-c2cnc(NCc3ccco3)n3cnnc23)cc1 [EED226, reference compound]
AUC(0-t) [2]: 886 ± 336 ng·h/mL | AUC(0-inf) [2]: 915 ± 316 ng·h/mL | MRT inf [2]: 2.55 ± 1.08 h | half-life [2]: 1.63 ± 0.411 h | Cmax [2]: 464 ± 429 ng/mL | IC50 (PRC2 enzyme): 104 nM | IC50 (SU-DHL-4 cells; SU-DHL-4, 264 h): 95 nM | IC50 (Pfeiffer cells [3]): 44 nM | IC50 (Karpas-422 cells; KARPAS-422, 264 h): 167 nM | IC50 (Pfeiffer cells [6]): 52 nM
